Columns and labels:
[1] = molecular target: GUCY2C (Homo sapiens, UniProt P25092); assay: Th Ser40 phosphorylation in HEK cells co-transfected with Th and GUCY2C (western blot); assay type: cell-based; design: expressed in transfected cells; host or cells: HEK cells (ATCC), calcium-phosphate transfection, co-transfected with mouse Th; settings: guanylin 10 μM, uroguanylin 1 μM, IBMX 100 μM, 1 hour
Experimental: FIG. 4. GUCY2C activation increases Ser40 phosphorylation. Immunocytochemistry images (A) and western blotting analysis (B) of HEK cultures transfected with Th or Th+GUCY2C. (C) Co-transfected HEK cells were treated with guanylin (G) or uroguanylin (UroG) and changes in Ser40 phosphorylation were studied. The graph represents the statistical analysis (n=3 for Control, n=6 for Guanylin, n=9 for Uroguanylin; Mean±SEM). Unpaired Student's t-test (p-value: **<0.01).
FIG. 5. […] (A) HEK cultures were treated with guanylin, in the presence or absence of IBMX. […] Unpaired Student's t-test (p-values: ****<0.0001, **<0.01, *<0.05). (B) HEK cells were co-transfected with Th and either the wt GUCY2C or a gain-of-function mutant (R792S). Ser40 phosphorylation was studied following guanylin treatment (G). […] Unpaired Student's t-test (p-values: ***<0.001, **<0.01).
(§1) HEK cells were maintained in 100-mm Petri dishes and grown in DMEM medium supplemented with L-glutamine, penicillin-streptomycin (Pen&Strep) and 10% heat-inactivated fetal bovine serum (HIFBS). Growing conditions were 37° C. and 5% CO2. For every-other-day passages, HEK cultures were split at a 1:3 dilution. From Friday to Monday, the split proportion was doubled for all cell lines. For passaging, cultures were rinsed with PBS and incubated with 1 mL of trypsin during 5 minutes. Cells were resuspended in growth medium and finally split to the proper dilution. The experiments were performed in 12-well plates. For immunocytochemistry analysis, sterile 18-mm coverslips were added prior to the plating. 500 !μL of cell resuspension was seeded in each well. If experiments were to be performed 48 hours after the plate preparation, 1:5 was the seeding ratio for HEK cells. When the experiments took place 96 hours post-plating, 1:7 was the working dilution for HEK cells. Unless otherwise stated, HEK cultures were processed 96 hours post-plating.
HEK cells were transfected using the calcium-phosphate method. 12-well plates were refreshed with 500 μL of growth medium before transfection. […]

[2] = test system: Ser40 phosphorylation of Th in HEK cells transfected with Th; assay: Th Ser40 phosphorylation in HEK cells transfected with Th (western blot); assay type: cell-based; settings: HEK-293 transfected with Th, low concentrations (1 μM)
Experimental: FIG. 3. HEK cells are a suitable model to study GUCY2C-induced Ser40 phosphorylation. (A) RT-qPCR data from intact HEK extracts. Input material was 10 ng of total RNA. Cp corresponds to the cycle number in which the expression starts to be considered positive. (−) represents the water control, which is negative in every case. (B) HEK cultures were transfected with Th and treated with a cGMP analogue 48 hours post-plating. Changes in Ser40 phosphorylation were studied. The graph represents the statistical analysis (n=6; Mean±SEM). Unpaired Student's t-test (p-value: ****<0.0001). Hereon, ‘Fold Change’ corresponds to the ratio P-Ser40/Total Th.
FIG. 7. PDE2a is an important effector regulating Ser40 phosphorylation in MN9D cells. BAY-60-7550 dose-curve and representative examples in MN9D (n=9, red) and HEK cells (n=4, blue) (Mean±SEM). Cells were treated with various concentrations of BAY 60-7750 and analyzed for Th phosphorylation on Ser40 , total Th and actin.
as §1
HEK cells were transfected using the calcium-phosphate method. […]

GUCY2C, sequence (P25092 24-1073): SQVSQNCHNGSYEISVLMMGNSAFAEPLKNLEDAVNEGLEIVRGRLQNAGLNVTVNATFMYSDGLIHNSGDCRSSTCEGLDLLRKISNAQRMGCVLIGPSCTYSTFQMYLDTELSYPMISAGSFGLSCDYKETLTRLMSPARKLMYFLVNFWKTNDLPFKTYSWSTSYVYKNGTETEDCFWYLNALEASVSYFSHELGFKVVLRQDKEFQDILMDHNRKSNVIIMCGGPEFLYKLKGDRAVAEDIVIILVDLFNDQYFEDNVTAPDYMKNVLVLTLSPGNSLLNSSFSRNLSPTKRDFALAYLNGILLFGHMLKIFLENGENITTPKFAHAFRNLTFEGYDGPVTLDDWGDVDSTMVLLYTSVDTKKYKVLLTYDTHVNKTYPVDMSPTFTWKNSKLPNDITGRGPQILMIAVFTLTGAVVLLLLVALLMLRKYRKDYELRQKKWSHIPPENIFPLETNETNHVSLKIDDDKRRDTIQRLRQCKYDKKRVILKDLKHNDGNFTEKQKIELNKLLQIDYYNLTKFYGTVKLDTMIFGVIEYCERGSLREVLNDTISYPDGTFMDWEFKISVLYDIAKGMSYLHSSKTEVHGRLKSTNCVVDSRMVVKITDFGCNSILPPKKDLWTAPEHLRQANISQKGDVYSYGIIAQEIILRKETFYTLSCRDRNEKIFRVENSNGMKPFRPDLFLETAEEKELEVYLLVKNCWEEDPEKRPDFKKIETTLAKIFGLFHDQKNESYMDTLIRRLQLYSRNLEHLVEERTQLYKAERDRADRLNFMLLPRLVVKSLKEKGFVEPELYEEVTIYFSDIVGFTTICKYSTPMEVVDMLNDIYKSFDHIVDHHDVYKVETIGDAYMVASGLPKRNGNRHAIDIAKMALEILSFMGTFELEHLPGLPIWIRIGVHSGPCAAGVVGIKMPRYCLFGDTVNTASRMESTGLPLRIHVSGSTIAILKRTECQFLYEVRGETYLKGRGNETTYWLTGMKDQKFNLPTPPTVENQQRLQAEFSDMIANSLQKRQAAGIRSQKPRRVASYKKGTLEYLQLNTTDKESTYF

Compound | P-Ser40 levels / Ser40 phosphorylation (in words) [1] | effect on Ser40 phosphorylation in HEK cells [2] | effect on Ser40 phosphorylation in HEK cells ([2]; listed as BAY 60-7750)
guanylin: natural agonistic ligand of GUCY2C, 15 amino acid polypeptide; commercially available rat/mouse guanylin (Chemcruz) (PNTCEICAYAACTGC) [reference compound] | increase P-Ser40 levels | – | –
COc1ccc(Cc2nn3c([C@@H](CCCc4ccccc4)[C@@H](C)O)nc(C)c3c(=O)[nH]2)cc1OC [BAY 60-7550] | – | hardly exhibit any effect | almost no effect
